According to ChEMBL document CHEMBL1129417, “Glucose transport-enhancing and hypoglycemic activity of 2-methyl-2-phenoxy-3-phenylpropanoic acids” (1996):

Key:
[1] = species: Rattus norvegicus; assay: Percentage inhibition of basal stimulated Gluconeogenesis in Isolated Rat Hepatocytes in vitro; format: functional, Hepatocyte
[2] = species: Rattus norvegicus; assay: Percentage inhibition of Glucagon stimulated Gluconeogenesis in Isolated Rat Hepatocytes in vitro; format: functional, Hepatocyte
[3] = test system: Mus musculus; assay: compound was tested in vivo for hypoglycemic activity in 6-8 week old C57BL/6J ob/ob mouse at 25 mg/kg; format: functional
[4] = test system: Mus musculus; assay: compound was tested in vivo for hypoglycemic activity in 6-8 week old C57BL/6J ob/ob mouse at 50 mg/kg; format: functional
[5] = test system: 3T3-L1; assay: compound was evaluated for their acute effects in vitro by measuring 2-Deoxyglucose (2DG) uptake in vehicle treated 3T3-L1 adipocytes at 100 uM dose.; format: functional
[6] = species: Rattus norvegicus; assay: Compound was tested for inhibition of gluconeogenesis; format: functional; conditions: Rattus norvegicus; read-out: ED50
[7] = test system: Mus musculus; assay: compound was tested in vivo for hypoglycemic activity in 6-8 week old C57BL/6J ob/ob mouse at 10 mg/kg; format: functional
[8] = test system: 3T3-L1; assay: compound was evaluated for their acute effects in vitro by measuring 2-Deoxyglucose (2DG) uptake in vehicle treated 3T3-L1 adipocytes at 30 uM dose.; format: functional
[9] = test system: 3T3-L1; assay: compound was evaluated for their acute effects in vitro by measuring 2-Deoxyglucose (2DG) uptake in vehicle treated 3T3-L1 adipocytes at 10 uM dose.; format: functional
[10] = test system: 3T3-L1; assay: compound was evaluated for their acute effects in vitro by measuring 2-Deoxyglucose (2DG) uptake in vehicle treated 3T3-L1 adipocytes at 60 uM dose.; format: functional
[11] = test system: 3T3-L1; assay: Acute effects in vitro by measuring 2-deoxyglucose (2DG) uptake in vehicle treated 3T3-L1 adipocytes at 10 uM dose.; format: functional
[12] = test system: 3T3-L1; assay: compound was evaluated for their acute effects in vitro by measuring 2-Deoxyglucose (2DG) uptake in vehicle treated 3T3-L1 adipocytes at concentration of 3 micro M; format: functional
[13] = test system: Mus musculus; assay: In vivo hypoglycemic activity expressed as glucose lowering relative to positive control in 6-8 week old C57BL/6J ob/ob mouse at 1 mg/kg.; format: functional
[14] = test system: 3T3-L1; assay: compound was evaluated for their acute effects in vitro by measuring 2-Deoxyglucose (2DG) uptake in vehicle treated 3T3-L1 adipocytes at concentration of 10 micro M; format: functional
[15] = test system: 3T3-L1; assay: compound was evaluated for their acute effects in vitro by measuring 2-Deoxyglucose (2DG) uptake in vehicle treated 3T3-L1 adipocytes at concentration of 30 micro M; format: functional
[16] = test system: Mus musculus; assay: In vivo hypoglycemic activity expressed as glucose lowering relative to positive control in 6-8 week old C57BL/6J ob/ob mouse at 10 mg/kg; format: functional
[17] = test system: 3T3-L1; assay: In vitro by measurements of 2-Deoxyglucose (2DG) uptake in vehicle treated 3T3-L1 adipocytes at 3 uM dose.; format: functional
[18] = test system: Mus musculus; assay: compound was tested in vivo for hypoglycemic activity in 6-8 week old C57BL/6J ob/ob mouse at 0.5 mg/kg; format: functional
[19] = test system: 3T3-L1; assay: compound was evaluated for their acute effects in vitro by measuring 2-Deoxyglucose (2DG) uptake in vehicle treated 3T3-L1 adipocytes at 300 uM dose.; format: functional
[20] = test system: Mus musculus; assay: In vivo hypoglycemic activity expressed as glucose lowering relative to positive control in 6-8 week old C57BL/6J ob/ob mouse at 5 mg/kg.; format: functional
[21] = species: Rattus norvegicus; assay: Inhibition of gluconeogenesis in rat; format: functional
[22] = test system: L6; assay: compound was evaluated for their acute effects in vitro by measuring 2-Deoxyglucose (2DG) uptake in vehicle treated L6 […] at 10 uM dose.; format: functional
[23] = test system: L6; assay: compound was evaluated for their acute effects in vitro by measuring 2-Deoxyglucose (2DG) uptake in vehicle treated L6 […] at 3 uM dose.; format: functional
[24] = test system: L6; assay: compound was evaluated for their acute effects in vitro by measuring 2-Deoxyglucose (2DG) uptake in vehicle treated L6 […] at 30 uM dose.; format: functional
[25] = test system: Mus musculus; assay: compound was tested in vivo for hypoglycemic activity in 6-8 week old C57BL/6J ob/ob mouse at 5 mg/kg; format: functional
[26] = test system: Mus musculus; assay: compound was tested in vivo for hypoglycemic activity expressed as Glucose lowering relative to positive control in 6-8 week old C57BL/6J ob/ob mouse at 0.1 mg/kg; format: functional
[27] = test system: Mus musculus; assay: compound was tested in vivo for hypoglycemic activity expressed as Glucose lowering relative to positive control in 6-8 week old C57BL/6J ob/ob mouse at 0.5 mg/kg; format: functional
[28] = test system: 3T3-L1; assay: In vitro measurements of 2-Deoxyglucose (2DG) uptake in vehicle treated 3T3-L1 adipocytes at 60 uM dose.; format: functional
[29] = test system: Mus musculus; assay: compound was tested in vivo for hypoglycemic activity expressed as Glucose lowering relative to positive control in 6-8 week old C57BL/6J ob/ob mouse at 20 mg/kg; format: functional
[30] = test system: L6; assay: Compound was evaluated for their acute effects in vitro by measuring 2-Deoxyglucose (2DG) uptake in vehicle treated L6 […] at 100 uM dose.; format: functional
[31] = test system: 3T3-L1; assay: compound was evaluated for their acute effects in vitro by measuring 2-Deoxyglucose (2DG) uptake in vehicle treated 3T3-L1 adipocytes at 1 uM dose.; format: functional
[32] = test system: Mus musculus; assay: Glucose(mg/dl) level, on day 5 when compound given at 5 mg/kg/day in pair feeding study with ob/ob mice; format: functional
[33] = test system: Mus musculus; assay: Basal glucose(mg/dl) level when compound given at 5 mg/kg/day in pair feeding study with ob/ob mice; format: functional
[34] = test system: 3T3-L1; assay: compound was evaluated for their acute effects in vitro by measuring 2-Deoxyglucose (2DG) uptake in vehicle treated 3T3-L1 adipocytes at 0.3 uM dose.; format: functional
[35] = test system: Mus musculus; assay: compound was tested in vivo for hypoglycemic activity expressed as Glucose lowering relative to positive control in 6-8 week old C57BL/6J ob/ob mouse at 50 mg/kg; format: functional
[36] = test system: Mus musculus; assay: Food intake (g/5 mice/ 5 days) when compound given at 5 mg/kg/day in pair feeding study with ob/ob mice; format: functional
[37] = test system: Mus musculus; assay: Net body weight delta (g)when compound given at 5 mg/kg/day in pair feeding study with ob/ob mice; format: functional
[38] = test system: L6; assay: Compound was evaluated for their acute effects in vitro by measuring 2-Deoxyglucose (2DG) uptake in vehicle treated L6 […] at 3 uM dose.; format: functional
[39] = test system: 3T3-L1; assay: In vitro measurements 2-Deoxyglucose (2DG) uptake in vehicle treated 3T3-L1 adipocytes at 100 uM dose.; format: functional
[40] = test system: Mus musculus; assay: compound was tested in vivo for hypoglycemic activity expressed as Glucose lowering relative to positive control in 6-8 week old C57BL/6J ob/ob mouse at 25 mg/kg; format: functional
[41] = test system: L6; assay: Compound was evaluated for their acute effects in vitro by measuring 2-Deoxyglucose (2DG) uptake in vehicle treated L6 […] at 10 uM dose.; format: functional
[42] = test system: L6; assay: Compound was evaluated for their acute effects in vitro by measuring 2-Deoxyglucose (2DG) uptake in vehicle treated L6 […] at 30 uM dose.; format: functional
[43] = test system: 3T3-L1; assay: Acute effects in vitro by measuring 2-deoxyglucose (2DG) uptake in vehicle treated 3T3-L1 adipocytes at 30 uM dose.; format: functional
[44] = test system: L6; assay: Compound was evaluated for their acute effects in vitro by measuring 2-Deoxyglucose (2DG) uptake in vehicle treated L6 […] at 60 uM dose.; format: functional
[45] = test system: L6; assay: Compound was evaluated for their acute effects in vitro by measuring 2-Deoxyglucose (2DG) uptake in vehicle treated L6 […] at 1 uM dose.; format: functional
[46] = test system: Mus musculus; assay: compound was tested in vivo for hypoglycemic activity expressed as Glucose lowering relative to positive control in 6-8 week old C57BL/6J ob/ob mouse at 2.5 mg/kg; format: functional
[47] = Rattus norvegicus, read-out: ED50

## C1CCC(NC2CCCCC2)CC1.CC(C)c1ccc(OC(Cc2cccc(F)c2)C(=O)O)cc1 (configuration not stated)
[1]
  Inhibition: 38%
[2]
  Inhibition: 3%
[3]
  Hypoglycemic activity: 65%
[4]
  Hypoglycemic activity: 100%
[5]
  Basal uptake: 111%
[6]
  ED50: < 25 mg/kg

## C1CCC(NC2CCCCC2)CC1.CC(C)c1ccc(OC(Cc2cccc(C(F)(F)F)c2)C(=O)O)cc1 (configuration not stated)
[7]
  Hypoglycemic activity: <0%
[3]
  Hypoglycemic activity: 64%
[4]
  Hypoglycemic activity: 76%
[5]
  Basal uptake: 284%
[6]
  ED50: 25 mg/kg

## CC(C)c1ccc(SC(C)(Cc2ccc(Cl)cc2)C(=O)[O-])cc1.[Na+] (configuration not stated)
[7]
  Hypoglycemic activity: 31%
[8]
  Basal uptake: 119%
[9]
  Basal uptake: 83%
[10]
  Basal uptake: 187%
[6]
  ED50: > 10 mg/kg

## CCc1cccc(CC(C)(Oc2ccc(C(C)C)cc2)C(=O)[O-])c1.[Na+] (configuration not stated)
[11]
  Basal uptake: 127%
[12]
  Basal uptake: 131%
[13]
  Hypoglycemic activity: 76%
[14]
  Basal uptake: 194%
[15]
  Basal uptake: 246%
[16]
  Hypoglycemic activity: 147%
[17]
  Basal uptake: 102%
[18]
  Hypoglycemic: <0
[19]
  Basal uptake: 117%
[20]
  Hypoglycemic activity: 101%
[21]; [47]
  ED50: 0.5 mg/kg

## CC(C)c1ccc(OC(C)(Cc2cccc(C(F)(F)F)c2)C(=O)[O-])cc1.[Na+] (configuration not stated)
[13]
  Hypoglycemic activity: 44%
[16]
  Hypoglycemic activity: 64%
[22]
  Basal uptake: 104%
[23]
  Basal uptake: 129%
[20]
  Hypoglycemic activity: 46%
[21]; [47]
  ED50: 5 mg/kg
[24]
  Basal uptake: 121%

## CCc1ccc(CC(C)(Oc2ccc(C(C)C)cc2)C(=O)[O-])cc1.[Na+] (configuration not stated)
[25]
  Glucose lowering relative to positive control: 109%
[12]
  Basal uptake: 94%
[13]
  Hypoglycemic activity: 86%
[14]
  Basal uptake: 108%
[26]
  Hypoglycemic activity: 55%
[15]
  Basal uptake: 216%
[16]
  Hypoglycemic activity: 119%
[27]
  Hypoglycemic activity: 76%
[28]
  Basal uptake: 109%
[21]; [47]
  ED50: 0.1 mg/kg

## CC(C)c1ccc(OC(C)(Cc2ccc(Cl)cc2)C(=O)O)cc1 (stereo in doubt; 26)
[29]
  Hypoglycemic activity: 104%
[30]
  Basal uptake: 88%
[11]
  Basal uptake: 94%
[31]
  Basal uptake: 86%
[12]
  Basal uptake: 139%
[32]
  Glucose: 223 mg/dL
[1]
  Inhibition: 36%
[33]
  Basal glucose: 341 mg/dL
[13]; 1 mg/kg
  Hypoglycemic activity: 50%
[34]
  Basal uptake: 106%
[35]
  Hypoglycemic activity: 83%
[14]
  Basal uptake: 200%
[36]
  Food intake: 132 g 5mice-1 5days-1
[37]
  Net body weight delta: 0.4 g
[38]
  Basal uptake: 97%
[15]
  Basal uptake: 291%
[16]
  Hypoglycemic activity: 111%
[39]
  Basal uptake: 220%
[17]
  Basal uptake: 98%
[40]
  Hypoglycemic activity: 90%
[41]
  Basal uptake: 96%
[42]
  Basal uptake: 87%
[2]
  Inhibition: 22%
[28]
  Basal uptake: 110%
[43]
  Basal uptake: 100%
[20]; 5 mg/kg
  Hypoglycemic activity: 77%
[44]
  Basal uptake: 108%
[21]; [47]
  ED50: 1 mg/kg
[45]
  Basal uptake: 101%

## CC(C)c1ccc(OC(C)(Cc2ccc(Cl)cc2)C(=O)O)cc1 (stereo in doubt; 27)
[13]; 1 mg/kg
  Hypoglycemic activity: 36%
[39]
  Basal uptake: 214%
[46]
  Hypoglycemic activity: 79%
[20]; 5 mg/kg
  Hypoglycemic activity: 65%
[21]
  ED50: 1 mg/kg

## CC(C)c1ccc(OC(C)(Cc2ccc(Cl)cc2)C(=O)O)cc1 (stereo in doubt; 28)
[13]; 1 mg/kg
  Hypoglycemic activity: 47%
[39]
  Basal uptake: 229%
[46]
  Hypoglycemic activity: 88%
[20]; 5 mg/kg
  Hypoglycemic activity: 100%
